Results taken from patent US20100076013A1, “Methods of Treatment” (Novartis AG, priority 2006, published 2010).

Assays:
FLT3-ITD-Ba/F3 [1] = details: PKC412-sensitive line FLT3-ITD-Ba/F3; FIGS. 1-2
Procedure: (§1) The IL-3-dependent murine hematopoietic cell line Ba/F3 are transduced with either FLT3-ITD or FLT3-D835Y-containing MSCV retroviruses harboring a neomycin selectable marker, and selected for resistance to neomycin. See Kelly et al. (2002). FLT3-ITD transduced cells are selected for growth in G418 (1 mg/mL). PKC412-resistant Ba/F3 cell lines, which express FLT3-ITD harboring a mutation in the ATP-binding pocket (F691L, A627T, G697R, N676D), are developed as described previously. See Cools et al. (2004). The human AML-derived, FLT3-ITD-expressing cell line, MV4; 11 [see Quentmeier et al. (2003)], is provided by Dr. Scott Armstrong, Dana Farber Cancer Institute, Boston, Mass. The human AML-derived, FLT3-ITD-expressing cell line, MOLM-13, is modified to express luciferase and provided as MOLM13-luc+ by Dr. Andrew Kung, Dana Farber Cancer Institute, Boston, Mass. All cell lines are cultured with 5% CO2 at 37° C., at a concentration of 2×10^5 to 5×10^5 in RPMI (Mediatech, Inc., Herndon, Va.) with 10% fetal calf serum and supplemented with 1% glutamine. Parental Ba/F3 cells expressing wild-type FLT3 are similarly cultured with 15% WEHI-conditioned medium as a source of IL-3. All transfected cell lines are cultured in media supplemented with 1 mg/mL G418.
(§2) N-[1-cyclohexyl-2-oxo-2-(6-phenethyl-octahydro-pyrrolo[2,3-c]pyridin-1-yl-ethyl]-2-methylamino-propionamide is synthesized by Novartis Pharma AG, Basel, Switzerland, and dissolved in DMSO to make 10 mM stock solutions. Serial dilutions are then made, also in DMSO, to obtain final dilutions for cellular assays.
(§3) The trypan blue exclusion assay has been previously described [see Weisberg et al. (2002)], and is used to determine proliferation of cells cultured in the presence and absence of LBW242. Cell viability is reported as percentage of control (untreated) cells. Error bars represent the standard error of the mean for each data point. Apoptosis of drug-treated cells is measured using the Annexin-V-Fluos Staining Kit (Boehringer Mannheim, Indianapolis, Ind.), as previously described. See Weisberg et al. (2002).

[2] = test system: wild-type FLT3-expressing Ba/F3 cells; details: FIG. 3
Procedure: as §1, §2, §3

D835Y-Ba/F3 cells = test: Trypan blue exclusion proliferation assay; type: cell-based, murine; details: PKC412-sensitive line D835Y-Ba/F3; three-day treatment, FIG. 3
Text: (§4) See Kelly et al. (2002). […] See Cools et al. (2004).
(§5) See Weisberg et al. (2002).

G697R-Ba/F3 [3] = test: Trypan blue exclusion proliferation assay; type: cell-based, murine; details: PKC412-resistant line G697R-Ba/F3; FIGS. 1-2
Text: as §4, §5

FLT3-ITD-Ba/F3 [4] = details: 1 μM, following 2 days and 3 days, respectively
Procedure: as §1, with “Parental Ba/F3 cells expressing wild-type FLT3 are similarly cultured with 15% WEHI-conditioned medium as a source of IL-3. All transfected cell lines are cultured in media supplemented with 1 mg/mL G418.” left out
The trypan blue exclusion assay has been previously described [see Weisberg et al. (2002)], and is used to determine proliferation of cells cultured in the presence and absence of LBW242. […] Apoptosis of drug-treated cells is measured using the Annexin-V-Fluos Staining Kit (Boehringer Mannheim, Indianapolis, Ind.), as previously described. […]

G697R-Ba/F3 [5] = test: Induction of apoptosis (Annexin-V staining) and caspase activity; type: cell-based, murine; details: 1 μM, following 2 days and 3 days, respectively
Text: as §4, §5

[6] = test system: Mutant FLT3-expressing cells
Procedure: as §1

[7] = test system: FLT3-ITD-Ba/F3 cells expressing firefly luciferase; test: Mouse model of acute leukemia, tumor burden by bioluminescence imaging; type: in vivo, NCr nude mice; details: for Student t-test p of bioluminescence (tumor burden), vehicle versus compound alone: 50 mg/kg oral gavage, NCr nude mice
Procedure: FIG. 4 illustrates NCR nude mice injected with 800,000 Ba/F3-FLT3-ITD-luc+ cells via IV tail vein, and then treated for up to 10 days by oral gavage with vehicle (NMP+PEG300), LBW242 (50 mg/kg).

[8] = test system: PKC412-sensitive and resistant mutant FLT3-expressing cells
Procedure: as §3

[9] = test system: mutant FLT3-expressing cells; details: annexin-pi staining and caspase assays; effective concentrations in the micromolar range
Procedure: as §3

CCRF-CEM = test: CellTiter-Glo cell viability assay; type: cell-based; details: Homo sapiens, T-ALL, 72 hours
Procedure: (§6) The EC50s were determined using CellTiter-Glo (Promega), a bioluminescent, cell viability assay measuring ATP levels in viable cells. Cells were plated in assay plates and incubated with a range of compound concentrations for 72 hours. Cells were lysed and ATP levels were determined using CellTiter-Glo reagent on a luminometer according to manufacturer's instructions. EC50 refers to the concentration of compound that inhibited 50% of cell growth.

CCRF-HSB-2 = test: CellTiter-Glo cell viability assay; type: cell-based; details: Homo sapiens; CCRF-HSB-2, T-ALL; 72 hours
Procedure: as §6

CEM/C1 = test: CellTiter-Glo cell viability assay; type: cell-based; details: CEM/C1, T-ALL; 72 hours
Procedure: as §6

CEM/C2 = test: CellTiter-Glo cell viability assay; type: cell-based; details: Homo sapiens; CEM/C2, T-ALL; 72 hours
Procedure: as §6

D1.1 = test: CellTiter-Glo cell viability assay; type: cell-based; details: D1.1, T-ALL; 72 hours
Procedure: as §6

EM-2 = test: CellTiter-Glo cell viability assay; type: cell-based; details: Homo sapiens; EM-2, CML; 72 hours
Procedure: as §6

EM-3 = test: CellTiter-Glo cell viability assay; type: cell-based; details: EM-3, CML; 72 hours
Procedure: as §6

EOL-1 = test: CellTiter-Glo cell viability assay; type: cell-based; details: Homo sapiens, EOL1; EOL-1, AML; 72 hours
Procedure: as §6

HSB-2 = test: CellTiter-Glo cell viability assay; type: cell-based; details: HSB2; HSB-2, T-ALL; 72 hours
Procedure: as §6

JK-1 = test: CellTiter-Glo cell viability assay; type: cell-based; details: JK-1, CML; 72 hours
Procedure: as §6

JURL-MK1 = test: CellTiter-Glo cell viability assay; type: cell-based; details: JURL-MK1, CML; 72 hours
Procedure: as §6

JURL-MK2 = test: CellTiter-Glo cell viability assay; type: cell-based; details: JURL-MK2, CML; 72 hours
Procedure: as §6

KARPAS-45 = test: CellTiter-Glo cell viability assay; type: cell-based; details: KARPAS-45, T-ALL; 72 hours
Procedure: as §6

KE-37 = test: CellTiter-Glo cell viability assay; type: cell-based; details: Homo sapiens; KE-37, T-ALL; 72 hours
Procedure: as §6

KU812 = test: CellTiter-Glo cell viability assay; type: cell-based; details: Homo sapiens; KU812, CML; 72 hours
Procedure: as §6

Karpas-299 = test: CellTiter-Glo cell viability assay; type: cell-based; details: Homo sapiens; Karpas-299, ALCL; 72 hours
Procedure: as §6

Kasumi-1 = test: CellTiter-Glo cell viability assay; type: cell-based; details: Homo sapiens; Kasumi-1, AML; 72 hours
Procedure: as §6

L-428 = test: CellTiter-Glo cell viability assay; type: cell-based; details: Homo sapiens; L-428, HL; 72 hours
Procedure: as §6

LAMA-84 = test: CellTiter-Glo cell viability assay; type: cell-based; details: Homo sapiens; LAMA-84, CML; 72 hours
Procedure: as §6

ML-2 = test: CellTiter-Glo cell viability assay; type: cell-based; details: Homo sapiens; ML-2, AML; 72 hours
Procedure: as §6

MOLT-3 = test: CellTiter-Glo cell viability assay; type: cell-based; details: Homo sapiens; MOLT-3, T-ALL; 72 hours
Procedure: as §6

NALM-1 = test: CellTiter-Glo cell viability assay; type: cell-based; details: NALM-1, CML; 72 hours
Procedure: as §6

NB-4 = test: CellTiter-Glo cell viability assay; type: cell-based; details: Homo sapiens; NB-4, AML; 72 hours
Procedure: as §6

NOMO-1 = test: CellTiter-Glo cell viability assay; type: cell-based; details: Homo sapiens; NOMO-1, AML; 72 hours
Procedure: as §6

OCI-AML3 = test: CellTiter-Glo cell viability assay; type: cell-based; details: Homo sapiens, OCI-AML-3, 72 hours
Procedure: as §6

PL-21 = test: CellTiter-Glo cell viability assay; type: cell-based; details: PL-21, AML; 72 hours
Procedure: as §6

RL = test: CellTiter-Glo cell viability assay; type: cell-based; details: Homo sapiens, B-NHL, 72 hours
Procedure: as §6

Reh = test: CellTiter-Glo cell viability assay; type: cell-based; details: Homo sapiens, B-ALL, 72 hours
Procedure: as §6

SR = test: CellTiter-Glo cell viability assay; type: cell-based; details: Homo sapiens, LCIL, 72 hours
Procedure: as §6

MV-4-11 = test: CellTiter-Glo cell viability assay; type: cell-based; details: Homo sapiens, MV4-11; MV-4-11, AML; 72 hours
Procedure: as §4, §6

Q: For `CNC(C)C(=O)NC(C(=O)N1CCC2CCN(CCc3ccccc3)CC21)C1CCCCC1` (centres unmarked) [N-[1-cyclohexyl-2-oxo-2-(6-phenethyl-octahydro-pyrrolo[2,3-c]pyridin-1-yl-ethyl]-2-methylamino-propionamide], which “doses at which activity is displayed against the cells in culture” value (“doses at which activity is displayed” below) (FLT3-ITD-Ba/F3 [1]) is on record?
A: ≥ 1 µM

Q: And the “concentrations that led to death of the cells” value [2]?
A: > 1 µM

Q: And the “inhibitory effects on cell growth” value ([2]; concentrations ≦1 μM)?
A: no inhibitory effects

Q: What about the “doses at which activity is displayed” value (D835Y-Ba/F3 cells) of the same compound?
A: ≥ 1 µM

Q: And the “doses at which activity is displayed” value (G697R-Ba/F3 [3])?
A: ≥ 1 µM

Q: And the “induction of apoptosis and caspase activity” value (FLT3-ITD-Ba/F3 [4])?
A: found

Q: And the “induction of apoptosis and caspase activity” value (G697R-Ba/F3 [5])?
A: found

Q: What about the “rescue of treated cells from cytotoxic effects by WEHI (source of IL-3)” value [6] of the same compound?
A: did not rescue

Q: What about the “Student t-test p of bioluminescence (tumor burden), vehicle versus compound alone” value ([7]; day 5 post-IV injection) of the same compound?
A: ≤ 0.0773

Q: What about the “Student t-test p of bioluminescence (tumor burden), vehicle versus compound alone” value ([7]; day 7 post-IV injection) of the same compound?
A: ≤ 0.05625

Q: What about the “tolerability of doses effective against mutant FLT3” value ([7]; in vivo) of the same compound?
A: well-tolerated

Q: And the “inhibition of cells in vitro” value [8]?
A: inhibits

Q: And the induction of apoptosis [9]?
A: modestly observed

Q: For `CN[C@@H](C)C(=O)N[C@H](C(=O)N1CCC[C@H]1c1nc(C(=O)c2ccc(F)cc2)cs1)C1CCCCC1` [(S)—N—((S)-1-Cyclohexyl-2-{(S)-2-[4-(4-fluoro-benzoyl)-thiazol-2-yl]-pyrrolidin-1-yl}-2-oxo-ethyl)-2-methylamino-propionamide], which EC50 (CCRF-CEM) is on record?
A: 0.676 µM

Q: What about the EC50 (CCRF-HSB-2) of the same compound?
A: 6.3 µM

Q: And the EC50 (CEM/C1)?
A: 4.6 µM

Q: What about the EC50 (CEM/C2) of the same compound?
A: 3.83 µM

Q: What about the EC50 (D1.1) of the same compound?
A: 7.35 µM

Q: What about the EC50 (EM-2) of the same compound?
A: 0.696 µM

Q: And the EC50 (EM-3)?
A: 13.8 µM

Q: And the EC50 (EOL-1)?
A: 1.66 µM

Q: What about the EC50 (HSB-2) of the same compound?
A: 0.4 µM

Q: And the EC50 (JK-1)?
A: 3.49 µM

Q: And the EC50 (JURL-MK1)?
A: 11.8 µM

Q: And the EC50 (JURL-MK2)?
A: 12.7 µM

Q: What about the EC50 (KARPAS-45) of the same compound?
A: 10.5 µM

Q: What about the EC50 (KE-37) of the same compound?
A: 5.1 µM

Q: What about the EC50 (KU812) of the same compound?
A: 1.94 µM

Q: What about the EC50 (Karpas-299) of the same compound?
A: 10.8 µM

Q: What about the EC50 (Kasumi-1) of the same compound?
A: 8.64 µM

Q: What about the EC50 (L-428) of the same compound?
A: 7.3 µM

Q: And the EC50 (LAMA-84)?
A: 0.203 µM

Q: And the EC50 (ML-2)?
A: 0.015 µM

Q: What about the EC50 (MOLT-3) of the same compound?
A: 10.2 µM

Q: And the EC50 (NALM-1)?
A: 3.54 µM

Q: And the EC50 (NB-4)?
A: 0.0146 µM

Q: And the EC50 (NOMO-1)?
A: 4.08 µM

Q: And the EC50 (OCI-AML3)?
A: 4.08 µM

Q: What about the EC50 (PL-21) of the same compound?
A: 3.55 µM

Q: And the EC50 (RL)?
A: 9.68 µM

Q: And the EC50 (Reh)?
A: 0.0791 µM

Q: What about the EC50 (SR) of the same compound?
A: 11.6 µM

Q: What about the EC50 (MV-4-11) of the same compound?
A: 14 µM

Q: With `CO[C@@H]1[C@H](N(C)C(=O)c2ccccc2)C[C@H]2O[C@]1(C)n1c3ccccc3c3c4c(c5c6ccccc6n2c5c31)C(=O)NC4` [PKC412, reference compound] as the compound, how does the “rescue of treated cells from cytotoxic effects by WEHI (source of IL-3)” value [6] read?
A: fully rescued
